Laboratory results: patent US20070191490A1, “Withacnistin compounds for treatment of cancer” (priority 2006, published 2007)
“Also recorded” adds a separate entry of the source.

Legend:
phosphotyrosine-STAT3 = experiment: Inhibition of phosphotyrosine-STAT3 levels in tumor cell lines (Western blotting); type: cell-based, human; conditions: for levels of P-STAT3: 10 μM, 4 hours; for IC50: Wit tested as withacnistin mixture; for P-STAT3 levels: A549 cells (FIG. 8A); for potency compared with the withacnistin mixture (P-STAT3 suppression): A549 and MDA-MB-468 cells
Description: (§1) Western blotting. Treated cell samples were lysed in 30 mM HEPES, pH 7.5, 10 mM NaCl, 5 mM MgCl2, 25 mM NaF, 1 mM EGTA, 1% Triton X-100, 10% glycerol, 2 mM sodium orthovanadate, 10 μg/ml aprotinin, 10μ/ml soybean trypsin inhibitor, 25 μg/ml leupeptin, 2 mM PMSF, and 6.4 mg/ml p-nitrophenylphosphate. Phospho-STAT3, phospho-AKT, phospho-Src, and phospho-p42/p44 MAPK antibodies were obtained from Cell Signaling Technologies (Cambridge, Mass., USA). Phospho-JNK and whole STAT3 antibodies were purchased from Santa Cruz Biotechnology (Santa Cruz, Calif., USA); phospho-JAK2 antibody came from Upstate Biotechnology (Lake Placid, N.Y., USA). Membranes were blocked in either 5% milk in phosphate-buffered saline (PBS), pH 7.4, containing 0.1% Tween-20 (PBS-T) or 1% BSA in tris-buffered saline (TBS), pH 7.5, containing 0.1% Tween-20 (TBS-T). Phospho-specific antibodies (excepting P-MAPK and P-JNK) were incubated in 1% BSA in TBS-T while all other antibodies were diluted in 5% milk in PBS-T for either 2 h at room temperature or overnight at 4° C. HRP-conjugated secondary antibodies (Jackson ImmunoResearch, West Grove, Pa., USA) were diluted in 5% milk in either PBS-T or TBS-T at 1:1000 dilution for 1 h at room temperature. Western blots were visualized using enhanced chemiluminescence.
(§2) To this end, A549 cells (a human non-small-cell lung carcinoma line) were treated with either vehicle, cucurbitacin analogs A, B, E, or I, or withacnistin mixture (10 ∥M) for 4 hours and the cell lysates processed for Western blotting with antiphosphotyrosine STAT3 (Y705) antibody or antiphosphotyrosine JAK2 (Y1007, Y1008) antibody as described under Materials and Methods.
(§3) As further support of the specific antiphosphotyrosine STAT3, but not antiphosphotyrosine JAK2, activity of withacnistin, A549 cells, as well as two breast carcinoma cell lines (MDA-MB-435 and MDA-MB-468) that also express constitutively activated JAK2 and STAT3, were treated with the withacnistin mixture at various concentrations, and determined IC50 values of inhibition of STAT3 and JAK2 activation.

phosphotyrosine-JAK2 = experiment: Inhibition of phosphotyrosine-JAK2 levels in tumor cell lines (Western blotting); type: cell-based, human; conditions: for levels of P-JAK2: 10 μM, 4 hours; for IC50: Wit tested as withacnistin mixture; for P-JAK2 levels: A549 cells (FIG. 8A)
Description: as §1, §2, §3

A549 tumors = experiment: Antitumor activity in nude mouse xenograft model, A549; type: in vivo; conditions: nude mice, 1 mg/kg/day i.p., Wit = withacnistin mixture
From the text: (§4) Antitumor activity in the nude mouse tumor xenograft model. Nude mice (Charles River, Wilmington, Mass., USA) were maintained in accordance with the Institutional Animal Care and Use Committee (IACUC) procedures and guidelines. A549 cells were harvested, resuspended in PBS, and injected subcutaneously (s.c.) into the right and left flank (1×10^7 cells per flank) of 8-week-old female nude mice as reported previously (Blaskovich, M. A. et al. Cancer Res., 2003, 63:1270-1279). When tumors reached about 150 mm^3, animals were randomized (four animals per group; two tumors per animal) and dosed intraperitoneally (i.p.) either with cucurbitacin analogs (0.5 or 1 mg/kg/day, i.p.) in 20% DMSO in water or with an equal volume of vehicle control. The tumor volumes were determined by measuring the length (l) and the width (w) and calculating the volume (V=lw^2/2) as described previously (Blaskovich, M. A. et al. Cancer Res., 2003, 63:1270-1279). Statistical significance between control and treated animals were evaluated by using Student's t-test.
(§5) To determine the ability of the cucurbitacin analogs and withacnistin to inhibit tumor growth in vivo, the antitumor activity of the cucurbitacin analogs and withacnistin against both A549 and v-Src/3T3 tumors in a nude mouse xenograft model was evaluated. When the tumors became palpable (at volumes of approximately 100-150 mm^3), the mice were treated either with vehicle control or 1 mg/kg/day of the cucurbitacins or the withacnistin mixture. Tumor volumes were monitored by caliper measurement as previously described (Blaskovich, M. A. et al. Cancer Res., 2003, 63:1270-1279) and under Materials and Methods.

v-Src/3T3 tumors = experiment: Antitumor activity in nude mouse xenograft model, v-Src/3T3; type: in vivo; conditions: v-Src/3T3 xenograft, nude mice, 1 mg/kg/day i.p.; Wit = withacnistin mixture
From the text: as §4, §5
Withacnistin inhibited 57% of tumor growth while Cuc I, B, and E inhibited 45, 40, and 42% of tumor growth, respectively (FIG. 3 and Table 2).

phosphotyrosine STAT3 = experiment: P-STAT3 immunohistochemistry of A549 tumor sections; type: in vivo, nude mice; conditions: 1 mg/kg/day; for P-STAT3 positive cells: termination day, control 76.5±1.4%
Description: P-STAT3 immunohistochemistry. On the termination day of the A549 antitumor experiment, tumors were extracted and fixed in 10% neutral-buffered formalin for 6 hours. After fixation, the tissue samples were processed into paraffin blocks. Tissue sections (5 μm) were dewaxed with xylene and rehydrated through descending alcohol to deionized water and then placed in PBS. Antigens were retrieved briefly with citrate buffer, pH 6.0, in a microwave followed by a mild trypsinization (0.025% trypsin in 50 mM Tris buffer containing 0.05% calcium chloride, pH 7.6). From this point, all steps were carried out in a DAKO Autostainer (DakoCytomation California, Inc., Carpinteria, Calif., USA). Sections were rinsed three times in TBS-Tween buffer, pH 7.6, then endogenous peroxidases were quenched with 3% hydrogen peroxide and nonspecific binding with 2% normal goat serum in 3% BSA/PBS. Sections then were incubated overnight with 1:400 phospho-STAT3 (Cell Signaling Technologies) at 4° C. in a humidified chamber. Detection was performed using the Elite ABC Rabbit kit (Vector Laboratories) and DAB chromogen (DakoCytomation California, Inc.) according to the manufacturer's instructions. Slides were counterstained for 20-30 seconds with modified Mayer's hematoxylin, dehydrated through ascending alcohol, cleared, and mounted with resinous mounting medium. Quantification was performed by counting both the phospho-STAT3-positive and -negative cells on slides representative of eight tumors and significance was determined by Student's t-test.
To determine whether phosphotyrosine STAT3 is targeted by withacnistin in vivo, and to determine if the results seen in cell culture concerning induction of apoptosis were occurring in tumors from animals treated with withacnistin, on the termination day of the A549 antitumor experiment, tumors from animals treated with Cuc A, Cuc I, and the withacnistin mixture, as well as vehicle control, were extracted and fixed in 10% neutral-buffered formalin and then processed into paraffin blocks for tissue sectioning. These tissue sections were stained separately with either TUNEL for determination of apoptosis, or phosphotyrosine STAT3 to determine if the signaling protein is inhibited in the tumors.

SMILES	levels of P-STAT3 (phosphotyrosine-STAT3; A549 cells)	IC50 (phosphotyrosine-STAT3; A549 cells) [nM]	IC50 (phosphotyrosine-STAT3; MDA-MB-435 cells) [nM]	IC50 (phosphotyrosine-STAT3; MDA-MB-468 cells) [nM]	levels of P-JAK2 (phosphotyrosine-JAK2; A549 cells)	IC50 (phosphotyrosine-JAK2; A549 cells) [nM]	IC50 (phosphotyrosine-JAK2; MDA-MB-435 cells) [nM]	IC50 (phosphotyrosine-JAK2; MDA-MB-468 cells) [nM]	% Inhibition of tumor growth (A549 tumors) [%]	% Inhibition of tumor growth (v-Src/3T3 tumors) [%]	inhibition of phosphotyrosine-STAT3 compared to vehicle control (phosphotyrosine STAT3)	P-STAT3 positive cells (phosphotyrosine STAT3) [%]	P-STAT3 levels (phosphotyrosine-STAT3)	P-JAK2 levels (phosphotyrosine-JAK2)	P-STAT3 (phosphotyrosine-STAT3; A549 and MDA-MB468 cells, 4-hour treatment (FIGS. 7A, 7B))	potency compared with the withacnistin mixture (P-STAT3 suppression) (phosphotyrosine-STAT3; listed as W)	potency compared with the withacnistin mixture (P-STAT3 suppression) (phosphotyrosine-STAT3; listed as pure withacnistin)
CC(=O)OC(C)(C)/C=C/C(=O)[C@](C)(O)[C@H]1[C@H](O)C[C@@]2(C)[C@@H]3CC=C4[C@@H](C[C@H](O)C(=O)C4(C)C)[C@]3(CO)C(=O)C[C@]12C [Cuc A, cucurbitacin A]	had no effect; also recorded: little inhibitory activity	> 10000	> 10000	> 10000	suppressed; also recorded: potently inhibited	1500 ± 700	650 ± 50	860	11.1	16	no inhibition	80.8±1.8					
CC(C)(O)/C=C/C(=O)[C@](C)(O)[C@H]1[C@H](O)C[C@@]2(C)[C@@H]3CC=C4[C@@H](C=C(O)C(=O)C4(C)C)[C@]3(C)C(=O)C[C@]12C [Cuc I, cucurbitacin I]	inhibited	800 ± 700	4600 ± 1900	7500 ± 1500	inhibited	250 ± 90	180 ± 70	400 ± 260	55.4	45	28.5%	54.7±4.5	suppressed the levels of both	suppressed the levels of both			
CC(=O)OC[C@]12CC[C@H]3[C@@H](C[C@H]4O[C@]45[C@@H](O)C=CC(=O)[C@]35C)[C@@H]1CC[C@@H]2[C@H](C)[C@H]1CC(C)=C(C)C(=O)O1 [withacnistin]		3700 ± 1700	900 ± 600	1400 ± 700		> 10000	> 10000	> 10000	73.1	57	70.5%	22.6±7.3	suppressed	but not P-JAK2	inhibit	slightly more potent than WM	more potent than the withacnistin mixture
